The text below walks through data of patent EP2805705B1, “Packaging with one or more administration units comprising a sodium salt of (R)-3-[6-amino-pyridin-3-yl]-2-(1-cyclohexyl-1 H-imidazol-4-yl)-propionic acid” (IP Gesellschaft für Management mbH, priority 2013, dated 2014).

Format in all cases: physicochemical
Data set [1] in a line: Dynamic vapor sorption (DVS), DVS-1 instrument, two cycles at 25 °C. As to conditions: for weight increase in the sorption step: 25 °C.
Data set [2] can be described thus: Determination of solubility in a mixture of acetone and water (4:1, by volume). Particulars: acetone and water (4:1, by volume). The protocol:
Determination of solubility: For the determination of the solubility in a mixture of acetone and water (4:1, by volume), samples of 0.5 mg to 50 mg of the test substances were suspended in a defined amount of the solvent (800 mg to 1200 mg) in screw cap vials with a magnetic stirring bar, which were placed in a temperature-controlled multiple stirring device equipped for transmission measurement (Avantium Crystal 16). With stirring at 700 rpm, the vials were cooled from room temperature to 0 °C and then heated to 60 °C with a heating rate of 3 °C/h, kept at 60 °C for 2 h and cooled again to 0 °C with a cooling rate of 3 °C/h. By means of transmission measurement it was determined whether the sample was dissolved (100 % transmission), or crystals were present. For polymorph 1 ({drug5b}), polymorph 2 ({drug5c}), hydrate 1 ({drug5e}) and hydrate 2 ({drug5f}) of compound (V) the following solubilities in a mixture of acetone and water (4:1, by volume) were determined.

Data set [3] can be described thus: Maturation experiments (slurry conversion), relative stability. As to conditions: among polymorphs 1, 2 and hydrate 1, suspensions kept five days at 20 °C, then dried at 40°C and <100 mbar. How it is done:
Maturation experiments: By maturation experiments (slurry conversion) at 20 °C the relative stability of polymorphs 1 ({drug5b}) and 2 ({drug5c}) and hydrate 1 ({drug5e}) was investigated. A polymorph mixture of 81 mg (Mixture of Polymorph 1 ({drug5b}) and Polymorph 2 ({drug5c})), 83 mg of Polymorph 1 ({drug5b}) and 60 mg of hydrate 1 ({drug5e}) was prepared. The mixture was subjected to XRPD analysis to confirm the presence of all three polymorphs and then distributed into five capillaries. These samples were kept in suspension at 20°C for five days. After X-ray powder diffraction measurement of the suspensions these were dried over night at 40°C and <100mbar and again subjected to X-ray diffraction. Maturation experiments (a) to (e) were performed under the specified conditions, starting with the polymorph mixture described above. (a) The polymorph mixture was suspended in water. After stirring the suspension for five days at 20 °C, the suspension was analyzed via XRPD and a mixture of polymorph 1 ({drug5b}) and hydrate 1 ({drug5e}) was proven. […] (b) The polymorph mixture was suspended in water/methanol 1:1 (vol.: vol.). […] (c) The polymorph mixture was suspended in 2-propanol. […] (d) The polymorph mixture was suspended in acetone. […] (e) The polymorph mixture was suspended in ethylacetate. […]

The nature of data set [4]: Solubility in water (statement, no method given). Particulars: result in words.
Data set [5] can be described thus: Physical stability on storage for 14 days (XRPD, thermogravimetry). As to conditions: stored 14 days under conditions (A), (B), (C) and (D). How it is done: Example 3: Physical stability: Representative samples of the crystalline salt of (R)-3-(6-amino-pyridin-3-yl)-2-(1-cyclohexyl-1 H-imidazol-4-yl)-propionic acid ethyl ester with naphthalene-1,5-disulfonic acid as in Example 1 are produced and are stored for 14 days under the conditions (A), (B), (C) and (D): (A) 50°C; (B) 50°C and 80% relative humidity; (C) 80°C; (D) 80°C and 80% relative humidity.

Data set [6] can be described thus: Chiral stability on storage for 14 days (chiral HPLC). How it is done:
Example 4: Chiral stability: Representative samples of the crystalline salt of (R)-3-(6-amino-pyridin-3-yl)-2-(1-cyclohexyl-1 H-imidazol-4-yl)-propionic acid ethyl ester with naphthalene-1,5disulfonic acid were prepared as described in example 1 amd stored for 14 days under described conditions (A), (B), (C) and (D): Results:
The enantiomeric purity of the sample measured at the beginning of measurement was 99.0%. Under the storage conditions 50°C (A) and 50°C and 80% relative humidity (B) a small increase of 0.2% of the (S)-enantiomers was observed. Under storage conditions 80°C (C), no change can be observed. Under the storage condition 80°C and 80% relative humidity (D) an increase of 2.7% of (S)-enantiomers was are observed. The measurements were made as described in Example 1 by chromatography on a chiral phase, Chiral HPLC (Chiralcel OD-H/84 (250x4.6 mm), heptane: isopropanol: acetonitrile 15:1: 0.5 +0.1% diethylamine (DEA), 30°C, 1 ml / min): Rt = 27.01 min.

SMILES strings stand for the structures.

As to `CNc1nccc(-c2cc3cc(C(=O)N[C@@H](CN(c4ccccc4)c4ncccn4)C(N)=O)ccc3[nH]2)n1` [Polymorph 1, 2-(2-methylamino-pyrimidin-4-yl)-1 H-indole-5-carboxylic acid [(S)-1-carbamoyl-2-(phenyl-pyrimidin-2-yl-amino)-ethyl]-amide], the “weight increase in the sorption step” value in data set [1] (Relative humidity 40 %, first cycle) is on record as 0.5 % / 0.5%; in data set [1] (Relative humidity 40 %, second cycle), 0.5 % / 0.5%; in data set [1] (Relative humidity 60 %, first cycle), 0.6 % / 0.6%; in data set [1] (Relative humidity 60 %, second cycle), 0.6 % / 0.6%; in data set [1] (Relative humidity 80 %, first cycle), 0.9 % / 0.9%; in data set [1] (Relative humidity 80 %, second cycle), 0.9 % / 0.9%. Moreover, the “weight increase in the sorption step” value in data set [1] (Relative humidity 95 %, first cycle) turned out to be 1.3%; in data set [1] (Relative humidity 95 %, second cycle), 1.4%. For the same compound, the “water uptake (hygroscopicity)” value in data set [1] (at a high relative humidity of 80 %) was “about 0.9%”. Moreover, the figures for the “Solubility [g in 100 g of solvent]” value in data set [2] (Temperature 36.9 °C), in data set [2] (Temperature 44.7 °C) and in data set [2] (Temperature 60.0 °C) were 0.43 g in 100 g of solvent, 0.50 g in 100 g of solvent and 0.85 g in 100 g of solvent, respectively. Also, the figures for the relative thermodynamic stability result in data set [3] and in data set [3] (listed as polymorph 1) were “thermodynamically most stable polymorph” and “thermodynamically most stable”, respectively. Besides, in data set [4], the solubility in water result is listed as “low solubility in water”.
Take `CCOC(=O)[C@H](Cc1ccc(N)nc1)c1cn(C2CCCCC2)cn1.O=S(=O)(O)c1cccc2c(S(=O)(=O)O)cccc12` [naphthalene-1,5-disulfonic acid salt of (R)-3-(6-amino-pyridin-3-yl)-2-(1-cyclohexyl-1 H-imidazol-4-yl)-propionic acid-ethylester]: the “XRPD measurements at the beginning and after 14 days” value in data set [5] is on record as “close to each other”. Besides, the enantiomeric purity is reported as 99.0% in data set [6] (at the beginning of measurement); 98.8% in data set [6] (storage condition (A) 50°C, 14 days); 98.8% in data set [6] (storage condition (B) 50°C and 80% relative humidity, 14 days); 99.0% in data set [6] (storage condition (C) 80°C, 14 days); 96.3% in data set [6] (storage condition (D) 80°C and 80% relative humidity, 14 days). For the same compound, in data set [6] (storage condition 80°C and 80% relative humidity (D), 14 days), the “increase of (S)-enantiomers” value came to 2.7%. Moreover, the “increase of the (S)-enantiomers” value in data set [6] (storage conditions 50°C (A) and 50°C and 80% relative humidity (B), 14 days) is on record as 0.2%. Besides, the “change of enantiomeric purity” value in data set [6] (storage conditions 80°C (C), 14 days) is “no change”.
